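In this assay, cells in 96-well plates receive the compound at five concentrations for 48 hours. Endpoints are linearly interpolated between the surrounding concentrations. GI50 marks 50% less growth. Definition used: TGI = concentration required for complete inhibition of growth.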
How the values were obtained:
Assay in all cases: NCI tumour cell line growth inhibition, 48 h
786-0 renal = system: 786-0 renal
A498 renal = system: A498 renal
A549 NSCLC = system: A549 NSCLC
ACHN renal = system: ACHN renal
BT-549 breast = system: BT-549 breast
CAKI-1 renal = system: CAKI-1 renal
CCRF-CEM leukemia = system: CCRF-CEM leukemia
COLO 205 colon = system: COLO 205 colon
EKVX NSCLC = system: EKVX NSCLC
HCC-2998 colon = system: HCC-2998 colon
HCT-116 colon = system: HCT-116 colon
HCT-15 colon = system: HCT-15 colon
HOP-62 NSCLC = system: HOP-62 NSCLC
KM12 colon = system: KM12 colon
LOX IMVI melanoma = system: LOX IMVI melanoma
M14 melanoma = system: M14 melanoma
MALME-3M melanoma = system: MALME-3M melanoma
MCF7 breast = system: MCF7 breast
MDA-MB-231 breast = system: MDA-MB-231 breast
MDA-MB-435 = system: MDA-MB-435
MDA-N = system: MDA-N
NCI-H226 lung = system: NCI-H226 lung
NCI-H23 lung = system: NCI-H23 lung
NCI-H460 lung = system: NCI-H460 lung
NCI-H522 lung = system: NCI-H522 lung
NCI/ADR-RES ovarian = system: NCI/ADR-RES ovarian
OVCAR-3 ovarian = system: OVCAR-3 ovarian
OVCAR-4 ovarian = system: OVCAR-4 ovarian
OVCAR-5 ovarian = system: OVCAR-5 ovarian
OVCAR-8 ovarian = system: OVCAR-8 ovarian
PC-3 prostate = system: PC-3 prostate
RPMI-8226 leukemia = system: RPMI-8226 leukemia
RXF 393 renal = system: RXF 393 renal
SF-268 CNS = system: SF-268 CNS
SF-295 CNS = system: SF-295 CNS
SF-539 CNS = system: SF-539 CNS
SK-MEL-2 melanoma = system: SK-MEL-2 melanoma
SK-MEL-28 melanoma = system: SK-MEL-28 melanoma
SK-OV-3 ovarian = system: SK-OV-3 ovarian
SN12C renal = system: SN12C renal
SNB-19 CNS = system: SNB-19 CNS
SNB-75 CNS = system: SNB-75 CNS
SW-620 colon = system: SW-620 colon
T-47D breast = system: T-47D breast
TK-10 renal = system: TK-10 renal
U251 CNS = system: U251 CNS
UACC-257 melanoma = system: UACC-257 melanoma
UO-31 renal = system: UO-31 renal
DU-145 prostate = system: DU-145 prostate
HL-60(TB) leukemia = system: HL-60(TB) leukemia
HOP-92 NSCLC = system: HOP-92 NSCLC
HS 578T breast = system: HS 578T breast
HT29 colon = system: HT29 colon
IGROV1 ovarian = system: IGROV1 ovarian
K-562 leukemia = system: K-562 leukemia
MOLT-4 leukemia = system: MOLT-4 leukemia
SK-MEL-5 melanoma = system: SK-MEL-5 melanoma
SR leukemia = system: SR leukemia
UACC-62 melanoma = system: UACC-62 melanoma

With `Cc1cc2[nH]c3c(C#N)c(-c4ccccc4)c(CN4CCOCC4)c(=O)n3c2cc1C` the TGI (786-0 renal) was > 100 µM, the TGI (A498 renal) was > 100 µM and the TGI (A549 NSCLC) was > 100 µM. For the same molecule, the TGI (ACHN renal) was > 100 µM, the TGI (BT-549 breast) was > 100 µM and the TGI (CAKI-1 renal) was > 100 µM. The TGI (CCRF-CEM leukemia) was > 100 µM, the TGI (COLO 205 colon) was > 100 µM and the TGI (EKVX NSCLC) was > 100 µM. The TGI (HCC-2998 colon) was > 100 µM, the TGI (HCT-116 colon) was > 100 µM and the TGI (HCT-15 colon) was > 100 µM. For the same molecule, the TGI (HOP-62 NSCLC) was > 100 µM, the TGI (KM12 colon) was > 100 µM and the TGI (LOX IMVI melanoma) was > 100 µM. The TGI (M14 melanoma) was > 100 µM, the TGI (MALME-3M melanoma) was > 100 µM and the TGI (MCF7 breast) was > 100 µM. For the same molecule, the TGI (MDA-MB-231 breast) was > 100 µM, the TGI (MDA-MB-435) was > 100 µM and the TGI (MDA-N) was > 100 µM. For the same molecule, the TGI (NCI-H226 lung) was > 100 µM, the TGI (NCI-H23 lung) was > 100 µM and the TGI (NCI-H460 lung) was > 100 µM. The TGI (NCI-H522 lung) was > 100 µM, the TGI (NCI/ADR-RES ovarian) was > 100 µM and the TGI (OVCAR-3 ovarian) was > 100 µM. For the same molecule, the TGI (OVCAR-4 ovarian) was > 100 µM, the TGI (OVCAR-5 ovarian) was > 100 µM and the TGI (OVCAR-8 ovarian) was > 100 µM. For the same molecule, the TGI (PC-3 prostate) was > 100 µM, the TGI (RPMI-8226 leukemia) was > 100 µM and the TGI (RXF 393 renal) was > 100 µM. For the same molecule, the TGI (SF-268 CNS) was > 100 µM, the TGI (SF-295 CNS) was > 100 µM and the TGI (SF-539 CNS) was > 100 µM. The TGI (SK-MEL-2 melanoma) was > 100 µM, the TGI (SK-MEL-28 melanoma) was > 100 µM and the TGI (SK-OV-3 ovarian) was > 100 µM. The TGI (SN12C renal) was > 100 µM, the TGI (SNB-19 CNS) was > 100 µM and the TGI (SNB-75 CNS) was > 100 µM. For the same molecule, the TGI (SW-620 colon) was > 100 µM, the TGI (T-47D breast) was > 100 µM and the TGI (TK-10 renal) was > 100 µM. The TGI (U251 CNS) was > 100 µM, the TGI (UACC-257 melanoma) was > 100 µM and the TGI (UO-31 renal) was > 100 µM.

`COc1ccc(/C=C/C(=O)c2ccc(Nc3ccnc4cc(Cl)ccc34)cc2)cc1` was tested, and the GI50 (786-0 renal) was > 100 µM, the TGI (786-0 renal) was > 100 µM and the GI50 (A498 renal) was > 52.3 µM. For the same molecule, the TGI (A498 renal) was > 100 µM, the GI50 (A549 NSCLC) was > 100 µM and the TGI (A549 NSCLC) was > 100 µM. For the same molecule, the GI50 (ACHN renal) was > 100 µM, the TGI (ACHN renal) was > 100 µM and the GI50 (BT-549 breast) was > 100 µM. The TGI (BT-549 breast) was > 100 µM, the GI50 (CAKI-1 renal) was > 100 µM and the TGI (CAKI-1 renal) was > 100 µM. For the same molecule, the GI50 (CCRF-CEM leukemia) was 5.64 µM, the TGI (CCRF-CEM leukemia) was > 100 µM and the GI50 (COLO 205 colon) was 70.2 µM. The TGI (COLO 205 colon) was > 100 µM, the GI50 (DU-145 prostate) was > 100 µM and the TGI (DU-145 prostate) was > 100 µM. For the same molecule, the GI50 (EKVX NSCLC) was > 100 µM, the TGI (EKVX NSCLC) was > 100 µM and the GI50 (HCC-2998 colon) was > 100 µM. For the same molecule, the TGI (HCC-2998 colon) was > 100 µM, the GI50 (HCT-116 colon) was 0.412 µM and the TGI (HCT-116 colon) was > 100 µM. The GI50 (HCT-15 colon) was > 100 µM, the TGI (HCT-15 colon) was > 100 µM and the TGI (HL-60(TB) leukemia) was > 35 µM. The GI50 (HOP-62 NSCLC) was > 100 µM, the TGI (HOP-62 NSCLC) was > 100 µM and the GI50 (HOP-92 NSCLC) was > 100 µM. The TGI (HOP-92 NSCLC) was > 100 µM, the GI50 (HS 578T breast) was > 100 µM and the TGI (HS 578T breast) was > 100 µM. For the same molecule, the GI50 (HT29 colon) was 4.2 µM, the TGI (HT29 colon) was > 100 µM and the GI50 (IGROV1 ovarian) was > 100 µM. For the same molecule, the TGI (IGROV1 ovarian) was > 100 µM, the GI50 (K-562 leukemia) was 4.15 µM and the TGI (K-562 leukemia) was > 54 µM. The GI50 (KM12 colon) was > 79.4 µM, the TGI (KM12 colon) was > 100 µM and the GI50 (LOX IMVI melanoma) was > 100 µM. For the same molecule, the TGI (LOX IMVI melanoma) was > 100 µM, the GI50 (M14 melanoma) was > 100 µM and the TGI (M14 melanoma) was > 100 µM. The GI50 (MALME-3M melanoma) was > 100 µM, the TGI (MALME-3M melanoma) was > 100 µM and the GI50 (MCF7 breast) was 2.85 µM. For the same molecule, the TGI (MCF7 breast) was > 42.3 µM, the GI50 (MDA-MB-231 breast) was 31.1 µM and the TGI (MDA-MB-231 breast) was > 100 µM. For the same molecule, the GI50 (MDA-MB-435) was 65.6 µM, the TGI (MDA-MB-435) was > 100 µM and the GI50 (MOLT-4 leukemia) was 4.35 µM. The TGI (MOLT-4 leukemia) was > 48.4 µM, the GI50 (NCI-H226 lung) was > 100 µM and the TGI (NCI-H226 lung) was > 100 µM. The GI50 (NCI-H23 lung) was > 100 µM, the TGI (NCI-H23 lung) was > 100 µM and the GI50 (NCI-H460 lung) was > 100 µM. For the same molecule, the TGI (NCI-H460 lung) was > 100 µM, the GI50 (NCI-H522 lung) was > 100 µM and the TGI (NCI-H522 lung) was > 100 µM. The GI50 (NCI/ADR-RES ovarian) was > 100 µM, the TGI (NCI/ADR-RES ovarian) was > 100 µM and the GI50 (OVCAR-3 ovarian) was > 100 µM. The TGI (OVCAR-3 ovarian) was > 100 µM, the GI50 (OVCAR-4 ovarian) was > 100 µM and the TGI (OVCAR-4 ovarian) was > 100 µM. For the same molecule, the GI50 (OVCAR-5 ovarian) was > 100 µM, the TGI (OVCAR-5 ovarian) was > 100 µM and the GI50 (OVCAR-8 ovarian) was > 100 µM. The TGI (OVCAR-8 ovarian) was > 100 µM, the GI50 (PC-3 prostate) was > 100 µM and the TGI (PC-3 prostate) was > 100 µM. The GI50 (RPMI-8226 leukemia) was 4.94 µM, the TGI (RPMI-8226 leukemia) was > 55.6 µM and the GI50 (RXF 393 renal) was > 100 µM. For the same molecule, the TGI (RXF 393 renal) was > 100 µM, the GI50 (SF-268 CNS) was > 100 µM and the TGI (SF-268 CNS) was > 100 µM. For the same molecule, the GI50 (SF-295 CNS) was > 100 µM, the TGI (SF-295 CNS) was > 100 µM and the GI50 (SF-539 CNS) was > 100 µM. The TGI (SF-539 CNS) was > 100 µM, the GI50 (SK-MEL-2 melanoma) was > 100 µM and the TGI (SK-MEL-2 melanoma) was > 100 µM. The GI50 (SK-MEL-28 melanoma) was > 100 µM, the TGI (SK-MEL-28 melanoma) was > 100 µM and the GI50 (SK-MEL-5 melanoma) was 21.6 µM. For the same molecule, the TGI (SK-MEL-5 melanoma) was > 100 µM, the GI50 (SK-OV-3 ovarian) was > 100 µM and the TGI (SK-OV-3 ovarian) was > 100 µM. For the same molecule, the GI50 (SN12C renal) was > 100 µM, the TGI (SN12C renal) was > 100 µM and the GI50 (SNB-19 CNS) was > 100 µM. For the same molecule, the TGI (SNB-19 CNS) was > 100 µM, the GI50 (SNB-75 CNS) was > 100 µM and the TGI (SNB-75 CNS) was > 100 µM. The GI50 (SR leukemia) was 2.24 µM, the TGI (SR leukemia) was 10.1 µM and the GI50 (SW-620 colon) was > 100 µM. For the same molecule, the TGI (SW-620 colon) was > 100 µM, the GI50 (T-47D breast) was > 100 µM and the TGI (T-47D breast) was > 100 µM. For the same molecule, the GI50 (TK-10 renal) was > 100 µM, the TGI (TK-10 renal) was > 100 µM and the GI50 (U251 CNS) was > 100 µM. For the same molecule, the TGI (U251 CNS) was > 100 µM, the GI50 (UACC-257 melanoma) was > 100 µM and the TGI (UACC-257 melanoma) was > 100 µM. The GI50 (UACC-62 melanoma) was 62.6 µM, the TGI (UACC-62 melanoma) was > 100 µM and the GI50 (UO-31 renal) was > 100 µM. The TGI (UO-31 renal) was > 100 µM.

Source: PubChem BioAssay (NCI)
